These results are taken from ChEMBL document CHEMBL4480430, “Advances in inhibition of protein-protein interactions targeting hypoxia-inducible factor-1 for cancer therapy” (Bioorg Med Chem, 2019).

Assay [1] deals with T1, Histone acetyltransferase p300/Hypoxia-inducible factor 1-alpha (Homo sapiens, UniProt Q09472+Q16665). Put plainly: Inhibition of HIF-1alpha (unknown origin)/p300 (unknown origin) protein-protein interaction. It counts as protein-complex assay.
Target sequence in this assay (Q09472 whole entry): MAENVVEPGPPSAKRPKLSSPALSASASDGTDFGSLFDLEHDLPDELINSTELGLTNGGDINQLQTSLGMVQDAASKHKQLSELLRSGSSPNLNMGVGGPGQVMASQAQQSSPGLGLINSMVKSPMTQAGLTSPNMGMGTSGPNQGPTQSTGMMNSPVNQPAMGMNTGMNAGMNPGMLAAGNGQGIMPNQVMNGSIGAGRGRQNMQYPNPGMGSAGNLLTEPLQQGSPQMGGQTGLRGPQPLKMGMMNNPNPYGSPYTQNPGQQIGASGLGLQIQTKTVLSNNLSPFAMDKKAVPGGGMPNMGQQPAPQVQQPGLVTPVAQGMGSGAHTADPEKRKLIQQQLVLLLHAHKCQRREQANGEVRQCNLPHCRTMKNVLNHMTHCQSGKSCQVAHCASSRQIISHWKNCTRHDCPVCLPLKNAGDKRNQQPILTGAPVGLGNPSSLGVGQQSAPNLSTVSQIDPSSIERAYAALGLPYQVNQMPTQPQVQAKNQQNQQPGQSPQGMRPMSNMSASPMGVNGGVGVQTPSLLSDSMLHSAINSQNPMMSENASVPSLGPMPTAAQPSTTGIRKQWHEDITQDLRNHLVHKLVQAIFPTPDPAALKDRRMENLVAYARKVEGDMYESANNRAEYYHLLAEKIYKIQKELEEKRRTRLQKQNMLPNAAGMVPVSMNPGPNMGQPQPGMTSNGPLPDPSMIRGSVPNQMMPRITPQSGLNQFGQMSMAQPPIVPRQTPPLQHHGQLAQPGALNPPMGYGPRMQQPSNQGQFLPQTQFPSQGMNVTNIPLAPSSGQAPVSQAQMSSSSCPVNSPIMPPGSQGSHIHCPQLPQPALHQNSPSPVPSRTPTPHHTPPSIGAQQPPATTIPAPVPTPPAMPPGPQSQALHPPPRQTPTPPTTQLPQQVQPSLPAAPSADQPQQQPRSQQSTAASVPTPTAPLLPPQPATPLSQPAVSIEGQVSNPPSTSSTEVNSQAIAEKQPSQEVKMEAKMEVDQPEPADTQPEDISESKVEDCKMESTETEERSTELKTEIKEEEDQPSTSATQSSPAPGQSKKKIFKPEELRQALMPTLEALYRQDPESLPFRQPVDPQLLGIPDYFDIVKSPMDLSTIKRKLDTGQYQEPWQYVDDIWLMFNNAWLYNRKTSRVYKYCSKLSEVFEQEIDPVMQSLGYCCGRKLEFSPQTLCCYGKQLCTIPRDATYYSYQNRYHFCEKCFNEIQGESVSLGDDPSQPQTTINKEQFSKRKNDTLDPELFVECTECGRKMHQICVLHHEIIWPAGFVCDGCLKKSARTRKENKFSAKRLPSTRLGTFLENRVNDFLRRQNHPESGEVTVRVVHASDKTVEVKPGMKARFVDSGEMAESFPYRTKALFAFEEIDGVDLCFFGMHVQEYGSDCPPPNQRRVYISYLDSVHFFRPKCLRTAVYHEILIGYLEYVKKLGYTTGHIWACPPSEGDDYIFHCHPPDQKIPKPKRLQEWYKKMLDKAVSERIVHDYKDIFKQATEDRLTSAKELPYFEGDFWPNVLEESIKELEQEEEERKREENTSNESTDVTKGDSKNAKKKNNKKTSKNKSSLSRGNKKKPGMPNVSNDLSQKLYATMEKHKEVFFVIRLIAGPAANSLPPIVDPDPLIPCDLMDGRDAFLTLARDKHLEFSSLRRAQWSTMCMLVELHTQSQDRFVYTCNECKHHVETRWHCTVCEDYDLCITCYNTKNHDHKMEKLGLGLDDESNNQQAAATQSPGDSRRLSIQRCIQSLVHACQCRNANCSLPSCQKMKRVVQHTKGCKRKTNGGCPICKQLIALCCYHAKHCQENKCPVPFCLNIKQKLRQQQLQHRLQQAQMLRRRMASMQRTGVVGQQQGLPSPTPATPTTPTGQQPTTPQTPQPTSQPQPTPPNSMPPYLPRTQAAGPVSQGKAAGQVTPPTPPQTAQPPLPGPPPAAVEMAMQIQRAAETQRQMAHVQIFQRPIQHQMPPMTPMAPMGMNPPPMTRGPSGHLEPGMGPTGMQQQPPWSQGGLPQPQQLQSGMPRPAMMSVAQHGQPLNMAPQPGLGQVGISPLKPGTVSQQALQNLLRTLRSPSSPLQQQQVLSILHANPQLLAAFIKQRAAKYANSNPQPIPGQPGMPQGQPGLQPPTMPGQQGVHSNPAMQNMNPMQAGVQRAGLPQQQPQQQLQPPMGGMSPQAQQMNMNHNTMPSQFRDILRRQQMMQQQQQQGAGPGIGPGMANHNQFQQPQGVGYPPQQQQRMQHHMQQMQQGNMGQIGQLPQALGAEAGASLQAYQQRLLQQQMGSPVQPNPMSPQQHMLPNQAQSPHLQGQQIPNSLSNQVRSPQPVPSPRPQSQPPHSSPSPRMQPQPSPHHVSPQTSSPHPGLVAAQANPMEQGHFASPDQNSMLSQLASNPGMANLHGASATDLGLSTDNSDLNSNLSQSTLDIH
Target sequence in this assay (Q16665 whole entry): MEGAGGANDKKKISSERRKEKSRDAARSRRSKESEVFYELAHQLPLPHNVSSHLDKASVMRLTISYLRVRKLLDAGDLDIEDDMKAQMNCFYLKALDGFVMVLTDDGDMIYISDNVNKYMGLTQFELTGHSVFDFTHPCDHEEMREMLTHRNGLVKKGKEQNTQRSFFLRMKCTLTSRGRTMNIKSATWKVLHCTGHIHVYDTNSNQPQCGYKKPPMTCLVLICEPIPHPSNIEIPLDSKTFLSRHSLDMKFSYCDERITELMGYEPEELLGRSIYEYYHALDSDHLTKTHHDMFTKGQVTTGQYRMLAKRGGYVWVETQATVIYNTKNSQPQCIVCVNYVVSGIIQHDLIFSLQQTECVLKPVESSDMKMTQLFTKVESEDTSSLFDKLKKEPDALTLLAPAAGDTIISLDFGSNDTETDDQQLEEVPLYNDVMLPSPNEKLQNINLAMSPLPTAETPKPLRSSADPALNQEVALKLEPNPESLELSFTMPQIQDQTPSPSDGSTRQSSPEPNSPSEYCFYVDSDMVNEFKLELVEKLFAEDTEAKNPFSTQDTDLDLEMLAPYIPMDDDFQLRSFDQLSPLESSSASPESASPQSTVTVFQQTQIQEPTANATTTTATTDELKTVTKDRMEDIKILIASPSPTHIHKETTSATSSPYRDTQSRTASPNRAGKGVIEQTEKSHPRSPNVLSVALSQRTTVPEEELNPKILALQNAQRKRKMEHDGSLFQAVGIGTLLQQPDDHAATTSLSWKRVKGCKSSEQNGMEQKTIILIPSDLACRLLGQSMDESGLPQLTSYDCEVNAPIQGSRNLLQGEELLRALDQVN
Assay [2] deals with T1, Histone acetyltransferase p300/Hypoxia-inducible factor 1-alpha. The assay is described as follows: Inhibition of HIF-1alpha/p300 protein-protein interaction in human cells after 2 hrs by immunoprecipitation assay. It counts as cell-based.
Target sequence in this assay (Q09472 whole entry): as the sequence (Q09472 whole entry) above
Target sequence in this assay (Q16665 whole entry): as the sequence (Q16665 whole entry) above
The target in assay [3] is T2, Hypoxia-inducible factor 1-alpha (Homo sapiens, UniProt Q16665). Put plainly: Binding affinity to HIF-1alpha (unknown origin) PAS B domain assessed as incorporation at Lys297 residues by mass spectrometry.
Target sequence in this assay (Q16665 whole entry, looked up): as the sequence (Q16665 whole entry) above
Assay [4] deals with T2, Hypoxia-inducible factor 1-alpha. Put plainly: Binding affinity to HIF-1alpha (unknown origin) PAS B domain assessed as incorporation at Cys334 residues by mass spectrometry.
Target sequence in this assay (Q16665 whole entry, looked up): as the sequence (Q16665 whole entry) above
Assay [5] has the same target. The assay is described as follows: Binding affinity to HIF-1alpha (unknown origin) PAS B domain assessed as incorporation at Cys255 residues by mass spectrometry. Set-up: concentration or dose not given beside the values.
Target sequence in this assay (Q16665 whole entry, looked up): as the sequence (Q16665 whole entry) above
The target is the same in assay [6]. Put plainly: Binding affinity to C-terminal Avi/FLAG-tagged HIF-1alpha (unknown origin) assessed as incorporation at His266 residues by mass spectrometry.
Target sequence in this assay (Q16665 whole entry, looked up): as the sequence (Q16665 whole entry) above
Assay [7] shares this target. The assay is described as follows: Binding affinity to HIF-1alpha (unknown origin) PAS B domain assessed as incorporation at His246 residues by mass spectrometry.
Target sequence in this assay (Q16665 whole entry, looked up): as the sequence (Q16665 whole entry) above
Assay [8] has the same target. The assay is described as follows: Binding affinity to His-tagged HIF-1alpha (1 to 350 residues) (unknown origin) PAS B domain expressed in Escherichia coli BL21(DE3) by ITC.
The test system of another assay is MDA-MB-231. The assay is described as follows: Antitumor activity against human MDA-MB-231 cells xenografted in mouse assessed as reduction in tumor volume at 15 mg/kg administered on alternative days for 28 days relative to control. It counts as functional. Also on record: scale not given: the % may be the effect or the level left.
For assay [9], the target named is T1, Histone acetyltransferase p300/Hypoxia-inducible factor 1-alpha. The assay is described as follows: Inhibition of HIF-1alpha (unknown origin)/p300 (unknown origin) protein-protein interaction by fluorescence anisotropy. It is filed as protein-complex assay.
Target sequence in this assay (Q09472 whole entry): as the sequence (Q09472 whole entry) above
Target sequence in this assay (Q16665 whole entry): as the sequence (Q16665 whole entry) above
In assay [10] the target is T3, Histone acetyltransferase p300 (Homo sapiens, UniProt Q09472). The assay is described as follows: Binding affinity to p300 (unknown origin) by fluorescence anisotrophy.
In assay [11] the target is T3, Histone acetyltransferase p300. The assay is described as follows: Binding affinity to p300 CH1 domain (unknown origin) by tryptophan fluorescence assay.
Assay [12] concerns the target T2, Hypoxia-inducible factor 1-alpha. The assay is described as follows: Binding affinity to Cys255 residue of C-terminal Avi/FLAG-tagged HIF-1alpha (unknown origin) after 1 hr by AlphaScreen assay.
In assay [13] the target is T1, Histone acetyltransferase p300/Hypoxia-inducible factor 1-alpha. Put plainly: Inhibition of fluorescein-labeled HIF-1alpha (786 to 826 residues) (unknown origin)/GST-fused p300 CH1 domain (323 to 423 residues) (unknown origin) protein-protein interaction at 500 uM after overnight incubation by time-resolved fluorescence assay relative to control. It counts as protein-complex assay.

Assay [14] shares this target. Put plainly: Inhibition of fluorescein-labeled HIF-1alpha (786 to 826 residues) (unknown origin)/GST-fused p300 CH1 domain (323 to 423 residues) (unknown origin) protein-protein interaction after overnight incubation by time-resolved fluorescence assay. It counts as protein-complex assay.
Target sequence in this assay (Q09472 whole entry): as the sequence (Q09472 whole entry) above
Target sequence in this assay (Q16665 whole entry): as the sequence (Q16665 whole entry) above
For assay [15] the target is unchanged. The assay is described as follows: Inhibition of human fluorescein-labeled HIF-1alpha (786 to 826 residues)/ human GST-fused p300 CH1 domain (323 to 423 residues) protein-protein interaction after 1 hr by fluorescence polarization assay. It is filed as protein-complex assay.
Target sequence in this assay (Q09472 whole entry): as the sequence (Q09472 whole entry) above
Target sequence in this assay (Q16665 whole entry): as the sequence (Q16665 whole entry) above
The target in assay [16] is T3, Histone acetyltransferase p300. Put plainly: Binding affinity to human GST-fused p300 CH1 domain (323 to 423 residues) under hypoxic condition by SPR assay.
Assay [17] has as its target T2, Hypoxia-inducible factor 1-alpha. The assay is described as follows: Inhibition of HIF-1 dimerization in HEK293 cells after 24 hrs by renilla luciferase reporter gene assay. It counts as cell-based.
In assay [18] the target is T3, Histone acetyltransferase p300. Put plainly: Binding affinity to human p300 CH1 domain (330 to 420 residues) expressed in Escherichia coli BL21(DE3) by fluorescence anisotropy competition assay.

Numbered stars: 1 amine (or outer) side, 2 acyl side, 3 side chain; on linkers, the order of the positions; unused ones are H or OH. Square brackets hold non-standard residues; d marks the D form. Peptide text beside a SMILES is read from it. 4Abz(3-OiBu) = CC(C)COc1cc(C(=O)[*:2])ccc1N[*:1]; X3 = CC(C)Oc1cc(C(=O)[*:2])ccc1N[*:1]

T3 sequence (Q09472 whole entry, the tested form may be a part): as the sequence (Q09472 whole entry) above

In [1], `COc1ccc(S(=O)(=O)N(Cc2ccc(CN3CCOCC3)cc2)c2ccccc2)cc1OC` came in with an IC50 of 900 nM. In turn, `CN1C(=O)[C@]2(Cc3cn([C@]45C[C@@]67SS[C@@](CO)(C(=O)N6[C@H]4Nc4ccccc45)N(C)C7=O)c4ccccc34)SS[C@@]1(CO)C(=O)N2C` [CHETOMIN] had an IC50 in assay [2] of 540 nM. Take `CC1=CC(O)(C#Cc2ccccc2)C=CC1=O` (centres undefined): the Activity in [3] was 10 to 20%; in assay [4], 10 to 20%; in assay [5], above 50%; in [6], 10 to 20%; in assay [7] it was 10 to 20%. Take `CC(C)C[C@@H]1NC(=O)[C@H](CS)NC(=O)[C@H](Cc2ccc(O)cc2)NC(=O)[C@H](C(C)C)NC(=O)[C@H](Cc2ccccc2)NC(=O)[C@H](CC(C)C)NC1=O`: the Kd in [8] was 124 nM.

On to `CC(C)C[C@@H]1NCCN([C@@H](CC(C)C)C(=O)N2CCN([C@@H](CCC(N)=O)C(N)=O)C(=O)[C@@H]2C)C1=O`, for which, in the assay on MDA-MB-231, the Activity was 50%. Regarding `C=CC(=O)N1CCc2ccccc21`, the Activity in assay [5] came to 25%. Consider `CC[C@H](C)[C@H](NC(=O)[C@@H]1CCCN1C(=O)[C@H](C)NC(=O)[C@H](CC(N)=O)NC(=O)[C@@H](NC(=O)[C@H](CCC(=O)O)NC(=O)[C@H](CO)NC(=O)[C@H](CC(=O)O)NC(=O)[C@H](Cc1ccc(O)cc1)NC(=O)[C@H](CO)NC(=O)[C@@H](NC(=O)[C@H](CC(C)C)NC(=O)[C@@H](N)CCC(N)=O)[C@@H](C)O)C(C)C)C(=O)N[C@@H](CCC(N)=O)C(=O)NCC(=O)N[C@@H](CO)C(=O)N[C@@H](CCCNC(=N)N)C(=O)N[C@@H](CC(N)=O)C(=O)N[C@@H](CC(C)C)C(=O)N[C@@H](CC(C)C)C(=O)N[C@@H](CCC(N)=O)C(=O)NCC(=O)Nc1ccc(C(=O)Nc2ccc(C(=O)Nc3ccc(C(=O)NCC(N)=O)cc3OC(C)C)cc2OCC(C)C)cc1OCC(C)C` (H-QLTSYDSEVNAPIQGSRNLLQG[4Abz(3-OiBu)][4Abz(3-OiBu)][X3]G-NH2), for which, in assay [9], the IC50 is 83000 nM.

The compound `COc1ccc(S(=O)(=O)N(Cc2ccc(CN3CCOCC3)cc2)C2CCC2)cc1OC` came in with an IC50 in [1] of 1000 nM. H-QLTSYDCEVNA-OH had a Kd in assay [10] of 6740 nM.

With `CCCC[C@@H](C(=O)N1CCN([C@@H](CCC(N)=O)C(N)=O)C(=O)[C@@H]1C)N1CCN[C@@H](CC(C)C)C1=O`, binding in assay [11] was put at a Kd of 30000 nM. Take `O=[N+]([O-])c1ccc2c(c1)S(=O)(=O)C=C2`: the IC50 in assay [12] is 43 nM. The Activity in assay [5] is above 50%. Turning to `COc1ccc(S(=O)(=O)N(Cc2ccc3c(n2)C=CC(C)(C)O3)C2CCC2)cc1OC`, in assay [1], inhibition was half-maximal at 280 nM (IC50).

The compound `COc1ccc([C@]2(c3nc(N)[nH]c3-c3ccc(O)cc3)N=C3N=CC=C4c5ccccc5N=C2N43)cc1` returned an inhibition in assay [13] of 27%. `COc1ccc([C@@]2(c3nc(N)[nH]c3-c3ccc(O)cc3)N=C3N=CC=C4c5ccccc5N=C2N43)cc1`: the IC50 in assay [14] was 276000 nM. `CN1C(=O)[C@@]2(Cc3ccc(C[C@]45SS[C@](CO)(C(=O)N4C)N(C)C5=O)cc3)SS[C@]1(CO)C(=O)N2C` had a half-maximal inhibitory concentration (IC50) in assay [15] of 1500 nM. For the same compound, the Kd in assay [16] came to 750 nM. H-QLTSYDCEVNAPIQGSRNLLQGEELLRALDQVN-OH: the IC50 in [9] amounted to 89000 nM. With `C[n+]1c2cc(N)ccc2cc2ccc(N)cc21` [EUFLAVINE], the half-inhibitory concentration (IC50) in assay [17] stood at 1000 nM. As to `CN1C(=O)[C@@]23C[C@]4([C@]56C[C@@]78SS[C@@](CO)(C(=O)N7[C@H]5Nc5ccccc56)N(C)C8=O)c5ccccc5N[C@@H]4N2C(=O)[C@]1(CO)SS3` [CHAETOCIN], the 50% inhibitory concentration (IC50) in assay [1] came out at 12500 nM. As to `C=C1C(=O)OC2C1CCC(=C)C1CC(=O)C(=C)C12` (centres undefined), the Activity in assay [3] was 10 to 20%; in [4], 10 to 20%; in [5], above 50%; in [6] it was 10 to 20%; in assay [7], 10 to 20%. `COC(=O)/C=C1/OC(c2ccc(O)cc2)=CC1=O`: the Activity in [3] is 10 to 20%; in [4] it was 10 to 20%; in assay [5], above 50%; in assay [6], 10 to 20%; in assay [7] it was 10 to 20%. `COc1ccc(S(=O)(=O)N(Cc2ccc3c(c2)C=CC(C)(C)O3)c2ccccc2)cc1OC` returned a concentration for half-maximal inhibition (IC50) in assay [1] of 590 nM. As to `CC(C)COc1cc(C(=O)Nc2ccc(C(=O)Nc3ccc(C(=O)O)cc3OC(C)C)cc2OCC(C)C)ccc1N`, in [18], the IC50 came out at 9190 nM. The compound `CC(C)COc1cc(C(=O)O)ccc1NC(=O)c1ccc(NC(=O)c2ccc(N)c(OC(C)C)c2)c(OCC(C)C)c1` yielded an IC50 in [18] of 24000 nM. `CN1C(=O)[C@@]2(Cc3ccc(CCc4ccc(C[C@@]56SS[C@@](CO)(C(=O)N5C)N(C)C6=O)cc4)cc3)NC(=O)[C@]1(CO)SS2` had an IC50 in assay [15] of 600 to 700 nM. In addition, in assay [16], the dissociation constant (Kd) worked out at 3620 nM.
